ChEMBL document CHEMBL1201862, “PubChem BioAssay data set” (2004)
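Cells were grown in 96-well plates and exposed to each compound for 48 hours at five concentrations; endpoints were interpolated linearly between bracketing concentrations, or set to the highest concentration if not reached. GI50 is the concentration that inhibits growth by half.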 Active and inactive are the calls of the source. Cut-off read from the data, not from the text of the source: active = GI50 up to about 1.1 µM and inactive = higher.

Columns and labels:
Assay in all cases: inhibition of tumour cell growth, NCI panel, 48 h
UO-31 = system: UO-31
SF-295 = system: SF-295
RXF 393 = system: RXF 393
SK-OV-3 = system: SK-OV-3
EKVX = system: EKVX
TK-10 = system: TK-10
NCI-H23 = system: NCI-H23
MCF7 = system: MCF7
NCI-H460 = system: NCI-H460
COLO 205 = system: COLO 205
K562 = system: K562
KM12 = system: KM12
OVCAR-3 = system: OVCAR-3
NCI-H226 = system: NCI-H226
OVCAR-5 = system: OVCAR-5
IGROV-1 = system: IGROV-1
MDA-MB-231 = system: MDA-MB-231
SK-MEL-2 = system: SK-MEL-2
HT-29 = system: HT-29
BT-549 = system: BT-549
M14 = system: M14
OVCAR-8 = system: OVCAR-8
HOP-92 = system: HOP-92
SR = system: SR
786-0 = system: 786-0
CAKI-1 = system: CAKI-1
Malme-3M = system: Malme-3M
NCI-H522 = system: NCI-H522
HCC 2998 = system: HCC 2998
ACHN = system: ACHN
A549 = system: A549
SW-620 = system: SW-620
MDA-MB-435 = system: MDA-MB-435
SF-268 = system: SF-268
SK-MEL-28 = system: SK-MEL-28
HCT-15 = system: HCT-15
CCRF-CEM = system: CCRF-CEM
U-251 = system: U-251
NCI/ADR-RES = system: NCI/ADR-RES
UACC-257 = system: UACC-257
Hs-578T = system: Hs-578T
OVCAR-4 = system: OVCAR-4
SNB-19 = system: SNB-19
SK-MEL-5 = system: SK-MEL-5
LOX IMVI = system: LOX IMVI
SF-539 = system: SF-539
PC-3 = system: PC-3
SN12C = system: SN12C
MDA-N = system: MDA-N
HOP-62 = system: HOP-62
HCT-116 = system: HCT-116
DU-145 = system: DU-145
RPMI-8226 = system: RPMI-8226
A498 = system: A498
T47D = system: T47D
UACC-62 = system: UACC-62
MOLT-4 = system: MOLT-4
SNB-75 = system: SNB-75
HL-60 = system: HL-60

SMILES: CCC(=O)Oc1ccc2c(c1)c(=O)c1c(NCCCN(C)C)ccc3nnn2c31
- GI50 (UO-31): 0.953 µM (active)
- GI50 (SF-295): 2.45 µM (inactive)
- GI50 (RXF 393): 1.83 µM (inactive)
- GI50 (SK-OV-3): 4.36 µM (inactive)
- GI50 (EKVX): 1.17 µM (inactive)
- GI50 (TK-10): 0.818 µM (active)
- GI50 (NCI-H23): 3.35 µM (inactive)
- GI50 (MCF7): 0.536 µM (active)
- GI50 (NCI-H460): 0.0348 µM (active)
- GI50 (COLO 205): 1.99 µM (inactive)
- GI50 (K562): 0.726 µM (active)
- GI50 (KM12): 0.796 µM (active)
- GI50 (OVCAR-3): 7 µM (inactive)
- GI50 (NCI-H226): 2.31 µM (inactive)
- GI50 (OVCAR-5): 8.28 µM (inactive)
- GI50 (IGROV-1): 0.0914 µM (active)
- GI50 (MDA-MB-231): 3.44 µM (inactive)
- GI50 (SK-MEL-2): 13 µM (inactive)
- GI50 (HT-29): 0.69 µM (active)
- GI50 (BT-549): 12.3 µM (inactive)
- GI50 (M14): 5.3 µM (inactive)
- GI50 (OVCAR-8): 0.403 µM (active)
- GI50 (HOP-92): 3.48 µM (inactive)
- GI50 (SR): 0.201 µM (active)
- GI50 (786-0): 0.361 µM (active)
- GI50 (CAKI-1): 0.664 µM (active)
- GI50 (Malme-3M): 3.98 µM (inactive)
- GI50 (NCI-H522): 0.188 µM (active)
- GI50 (HCC 2998): 1.25 µM (inactive)
- GI50 (ACHN): 0.385 µM (active)
- GI50 (A549): 0.275 µM (active)
- GI50 (SW-620): 0.322 µM (active)
- GI50 (MDA-MB-435): 2.79 µM (inactive)
- GI50 (SF-268): 1.8 µM (inactive)
- GI50 (SK-MEL-28): 10.9 µM (inactive)
- GI50 (HCT-15): 0.4 µM
- GI50 (CCRF-CEM): 0.127 µM (active)
- GI50 (U-251): 1.42 µM (inactive)
- GI50 (NCI/ADR-RES): 3.31 µM (inactive)
- GI50 (UACC-257): 10.6 µM (inactive)
- GI50 (Hs-578T): 5.56 µM (inactive)
- GI50 (OVCAR-4): 0.548 µM (active)
- GI50 (SNB-19): 2.06 µM (inactive)
- GI50 (SK-MEL-5): 1.9 µM (inactive)
- GI50 (LOX IMVI): 1.03 µM (active)
- GI50 (SF-539): 1.71 µM (inactive)
- GI50 (PC-3): 2.48 µM (inactive)
- GI50 (SN12C): 0.525 µM (active)
- GI50 (MDA-N): 3.86 µM (inactive)
- GI50 (HOP-62): 1.53 µM (inactive)
- GI50 (HCT-116): 0.334 µM (active)
- GI50 (DU-145): 1.04 µM (active)
- GI50 (RPMI-8226): 0.767 µM (active)
- GI50 (A498): 2.77 µM (inactive)
- GI50 (T47D): 15.7 µM (inactive)
- GI50 (UACC-62): 11.2 µM (inactive)
- GI50 (MOLT-4): < 0.0204 µM (active)

SMILES: Nc1nc(O)c2nc3c(nc2n1)C(=O)N(c1ccc(C(=O)O)cc1)C3
- GI50 (UO-31): > 100 µM (inactive)
- GI50 (SF-295): > 100 µM (inactive)
- GI50 (RXF 393): > 100 µM (inactive)
- GI50 (SK-OV-3): > 100 µM (inactive)
- GI50 (EKVX): > 100 µM (inactive)
- GI50 (TK-10): > 100 µM (inactive)
- GI50 (NCI-H23): > 100 µM (inactive)
- GI50 (MCF7): > 100 µM (inactive)
- GI50 (NCI-H460): > 100 µM (inactive)
- GI50 (COLO 205): > 100 µM (inactive)
- GI50 (K562): > 100 µM (inactive)
- GI50 (KM12): > 100 µM (inactive)
- GI50 (NCI-H226): > 100 µM (inactive)
- GI50 (OVCAR-5): > 100 µM (inactive)
- GI50 (IGROV-1): > 100 µM (inactive)
- GI50 (MDA-MB-231): > 100 µM (inactive)
- GI50 (SK-MEL-2): > 100 µM (inactive)
- GI50 (HT-29): > 100 µM (inactive)
- GI50 (BT-549): > 100 µM (inactive)
- GI50 (M14): > 100 µM (inactive)
- GI50 (OVCAR-8): > 100 µM (inactive)
- GI50 (HOP-92): > 100 µM (inactive)
- GI50 (SR): > 100 µM (inactive)
- GI50 (786-0): > 100 µM (inactive)
- GI50 (CAKI-1): > 100 µM (inactive)
- GI50 (Malme-3M): > 100 µM (inactive)
- GI50 (NCI-H522): > 100 µM (inactive)
- GI50 (HCC 2998): > 100 µM (inactive)
- GI50 (ACHN): > 100 µM (inactive)
- GI50 (A549): > 100 µM (inactive)
- GI50 (SW-620): > 100 µM (inactive)
- GI50 (MDA-MB-435): > 100 µM (inactive)
- GI50 (SF-268): > 100 µM (inactive)
- GI50 (SK-MEL-28): > 100 µM (inactive)
- GI50 (HCT-15): > 100 µM
- GI50 (U-251): > 100 µM (inactive)
- GI50 (NCI/ADR-RES): > 100 µM (inactive)
- GI50 (UACC-257): > 100 µM (inactive)
- GI50 (Hs-578T): > 100 µM (inactive)
- GI50 (OVCAR-4): > 100 µM (inactive)
- GI50 (SNB-19): > 100 µM (inactive)
- GI50 (SK-MEL-5): > 100 µM (inactive)
- GI50 (LOX IMVI): > 100 µM (inactive)
- GI50 (SF-539): > 100 µM (inactive)
- GI50 (PC-3): > 100 µM (inactive)
- GI50 (SN12C): > 100 µM (inactive)
- GI50 (MDA-N): > 100 µM (inactive)
- GI50 (HOP-62): 29.4 µM (inactive)
- GI50 (HCT-116): > 100 µM (inactive)
- GI50 (SNB-75): > 100 µM (inactive)
- GI50 (DU-145): > 100 µM (inactive)
- GI50 (RPMI-8226): > 100 µM (inactive)
- GI50 (A498): > 100 µM (inactive)
- GI50 (T47D): > 100 µM (inactive)
- GI50 (UACC-62): > 100 µM (inactive)

SMILES: Nc1ccc(Oc2ccc(C34CC5CC6C3CC3CC4C(C5)C6(c4ccc(Oc5ccc(N)cc5)cc4)C3)cc2)cc1
- GI50 (UO-31): 8.36 µM (inactive)
- GI50 (SF-295): 23.8 µM (inactive)
- GI50 (RXF 393): 18.6 µM (inactive)
- GI50 (SK-OV-3): 22.8 µM (inactive)
- GI50 (EKVX): 11.5 µM (inactive)
- GI50 (TK-10): 21.6 µM (inactive)
- GI50 (NCI-H23): 26.4 µM (inactive)
- GI50 (MCF7): 36.2 µM (inactive)
- GI50 (NCI-H460): 21.4 µM (inactive)
- GI50 (COLO 205): < 0.01 µM (active)
- GI50 (K562): 10.2 µM (inactive)
- GI50 (KM12): 19.5 µM (inactive)
- GI50 (OVCAR-3): 6.5 µM (inactive)
- GI50 (NCI-H226): 22.8 µM (inactive)
- GI50 (OVCAR-5): > 100 µM (inactive)
- GI50 (IGROV-1): 23.8 µM (inactive)
- GI50 (MDA-MB-231): 9.08 µM (inactive)
- GI50 (SK-MEL-2): 4.37 µM (inactive)
- GI50 (HT-29): 10.2 µM (inactive)
- GI50 (BT-549): 34.4 µM (inactive)
- GI50 (M14): 0.583 µM (active)
- GI50 (OVCAR-8): 31.9 µM (inactive)
- GI50 (HOP-92): 2.9 µM (inactive)
- GI50 (SR): 21.9 µM (inactive)
- GI50 (786-0): 13.4 µM (inactive)
- GI50 (CAKI-1): 19 µM (inactive)
- GI50 (Malme-3M): 0.216 µM (active)
- GI50 (NCI-H522): 12.8 µM (inactive)
- GI50 (HCC 2998): 18 µM (inactive)
- GI50 (ACHN): 3.17 µM (inactive)
- GI50 (A549): 12.6 µM (inactive)
- GI50 (SW-620): 19.7 µM (inactive)
- GI50 (MDA-MB-435): 0.376 µM (active)
- GI50 (SF-268): 22.6 µM (inactive)
- GI50 (SK-MEL-28): 0.714 µM (active)
- GI50 (HCT-15): 21.8 µM
- GI50 (CCRF-CEM): 15.4 µM (inactive)
- GI50 (U-251): 2.9 µM (inactive)
- GI50 (NCI/ADR-RES): > 74.6 µM (inactive)
- GI50 (UACC-257): 0.329 µM (active)
- GI50 (Hs-578T): 25.4 µM (inactive)
- GI50 (OVCAR-4): 11.1 µM (inactive)
- GI50 (SNB-19): 9.53 µM (inactive)
- GI50 (SK-MEL-5): 0.561 µM (active)
- GI50 (LOX IMVI): 20 µM (inactive)
- GI50 (PC-3): 8.26 µM (inactive)
- GI50 (SN12C): 25.1 µM (inactive)
- GI50 (MDA-N): 0.334 µM (active)
- GI50 (HOP-62): 18.3 µM (inactive)
- GI50 (HCT-116): 8.41 µM (inactive)
- GI50 (DU-145): 8.93 µM (inactive)
- GI50 (RPMI-8226): 13 µM (inactive)
- GI50 (A498): 22.2 µM (inactive)
- GI50 (T47D): 9.14 µM (inactive)
- GI50 (HL-60): 7.14 µM (inactive)
- GI50 (UACC-62): 2.74 µM (inactive)
- GI50 (MOLT-4): 7.98 µM (inactive)
